Experimental data from PubChem BioAssay AID463206 (Broad Institute, 2010).
Active and inactive are the calls of the source.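 The calls were made as follows: active = caspase luminescence falls with dose and the half-maximal concentration AC50 from the fitted curve is at or below a set limit; inconclusive = flat fit at 30 to 70% signal loss, or invalid fit; inactive = AC50 above the limit, or signal rises instead.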

The compounds below were run on INS-1E cytokine-induced caspase-3/7, Caspase-Glo luminescence, 48 h (assay: suppression of cytokine-driven beta-cell apoptosis – INS-1E rat cells, luminescence, orthogonal assay for beta-cell apoptosis protection project, dose response (AID 463206)).

| SMILES | AC50 |
| --- | --- |
| Cc1ccc(NC(=O)COc2ccc(N(C)C(=O)C(C)(C)C)cc2)cc1S(=O)(=O)N1CCCCC1 | > 26 µM (inactive) |
| Cc1cccn2c(Nc3ccccc3)c(-c3ccccn3)nc12 | > 26 µM (inactive) |
| CC(C)Nc1ccc(Nc2ccnc3cc4ccccc4cc23)cc1 | 3.23 µM |
| CCC(=O)NC(c1ccc(C)cc1)c1cc([N+](=O)[O-])c2cccnc2c1O (stereo not given) | > 26 µM (inactive) |
| O=C(CCl)N(c1ccccc1)C1CCCCC1 | > 26 µM (inactive) |
| Clc1ccccc1Nc1nnc(-c2ccncc2)s1 | > 26 µM (inactive) |
| Cc1sc2ncnc(NCC(O)c3ccccc3)c2c1C (stereo not given) | 23.5 µM |
| CCN1CCN(Cc2ccc(NC(=O)c3cc(NC(=O)c4cncc(-c5ccc(C#N)cc5)c4)cc(OC)c3)cc2C(F)(F)F)CC1 | > 26 µM (inactive) |
| Cc1ccc(Cl)cc1N1CCN(C(=O)CSc2nnc3n2C(C)(C)Cc2ccccc2-3)CC1 | > 26 µM (inactive) |
| Cc1cccc2sc(NNC(=O)c3ccc(S(=O)(=O)N4CCc5ccccc5C4)cc3)nc12 | > 26 µM (inactive) |
| O=C(Nc1ccc(Cl)cc1)Nc1nnc(CSCc2ccc(Cl)cc2)s1 | > 26 µM (inactive) |
| O=C(c1ccco1)c1coc2c1cc(O)c1ccccc12 | > 26 µM (inactive) |
| O=C(Nc1ccc([N+](=O)[O-])cc1)Nc1ccc(Cl)cc1F | > 26 µM (inactive) |
| Cc1[nH]n(-c2ccccc2)c(=O)c1/C=N/NC(=O)COc1ccccc1[N+](=O)[O-] | > 26 µM (inactive) |
| COc1ccc(O)c(/C=N/NC(=S)Nc2cccnc2)c1 | > 26 µM (inactive) |
| NC1=C(Br)C(=O)c2ccccc2C1=O | > 26 µM (inactive) |
| CC(Sc1nnc2c(n1)[nH]c1ccccc12)C(=O)N(C)C1CCCCC1 (stereo not given) | > 12 µM (inactive) |
| Cc1cccc(/C=N/NC(=O)c2ccc3c(c2)OCCO3)c1O | > 26 µM (inactive) |
| COc1ccc(-c2c[n+]3c4n2CCCCC4=C(c2ccc(Br)cc2)C3)cc1 | > 26 µM (inactive) |
| Oc1ccc(-c2n[nH]c(C(F)(F)F)c2-c2ccccc2)c(O)c1 | > 26 µM (inactive) |
| COc1ccc(O)c(/C=N/Nc2nc(Nc3ccccc3)nc(-n3nc(C)cc3C)n2)c1 | > 26 µM (inactive) |
| Cc1c2ccncc2c(C)c2c1[nH]c1ccccc12 | 1.11 µM |
| CCOC(=O)[C@@H]1[C@H]2COc3cc(OC)ccc3[C@H]2N2C(=O)N(c3ccc(C(F)(F)F)cc3)C(=O)[C@]12C | > 26 µM (inactive) |
| c1ccc(CNc2c3ccccc3nc3ccccc23)cc1 | 6.14 µM |

| SMILES | AC50 |
| --- | --- |
| C=C1C(=O)O[C@@H]2C[C@@H](C)[C@@H]3C=CC(=O)[C@@]3(C)[C@@H](O)[C@H]12 | > 26 µM (inactive) |
| Cc1ccc(Nc2nc(NCc3ccco3)c3ccccc3n2)cc1 | > 12 µM (inactive) |
| C/C(N)=C(/C#N)C(=O)COC(=O)c1cc(-c2ccc(C)cc2)nc2ccccc12 | > 26 µM (inactive) |
| CC1CCC/C=C/C2CC(O)CC2C(O)/C=C/C(=O)O1 (stereo not given) | > 26 µM (inactive) |
| CCN(C1CCCCC1)S(=O)(=O)c1ccc(S(=O)(=O)NCc2ccncc2)cc1 | > 26 µM (inactive) |
| COc1ccc(C2NCCc3c2[nH]c2ccccc32)cc1COc1ccc(F)cc1 (stereo not given) | > 26 µM (inactive) |
| CCCCn1cnc2c(c(-c3ccccc3)c(-c3ccccc3)n2Cc2ccco2)c1=N | > 26 µM (inactive) |
| Cc1ccc(S(=O)(=O)c2ccc([N+](=O)[O-])cn2)cc1 | > 26 µM (inactive) |
| O=C1C=C(Nc2ccc(F)cc2)c2ccccc2C1=O | > 26 µM (inactive) |
| N/C(=N\NC(=O)c1sccc1OCc1ccc(Cl)cc1Cl)c1ccccn1 | > 26 µM (inactive) |
| O=C1N/C(=N\N=C\c2cccnc2)SC1Cc1ccc(SC(F)F)cc1 (stereo not given) | > 26 µM (inactive) |
| Cc1ccnc2c1ccc1c(C)ccnc12 | > 26 µM (inactive) |
| Cc1onc(-c2ccccc2)c1C(=O)NC(=S)NNC(=O)c1ccccc1O | > 26 µM (inactive) |
| C=CCSc1nc2ccccc2n1C(=O)/C=C/c1ccc(OC)c(OC)c1 | > 26 µM (inactive) |
| C1CCC(C(CC2CCCCN2)C2CCCCC2)CC1 (stereo not given) | > 26 µM (inactive) |
| Cc1ccc(C(=O)Nc2nc(-c3ccccn3)cs2)s1 | > 26 µM (inactive) |
| CCCCCCCCn1c2c(c(=N)c3c1CCC3)CCCC2 | > 26 µM (inactive) |
| CCCCc1ccc(N/C(N)=N/c2nc(C)cc(C)n2)cc1 | > 26 µM (inactive) |
| Cc1cc([N+](=O)[O-])c2ccccc2[n+]1[O-] | > 26 µM (inactive) |
| Cc1ncc(CO)c(/C=N/NC(=O)c2cc3c(s2)CCCC3)c1O | > 26 µM (inactive) |
| CCn1c(C)c(C)c2cc(C(=O)N3CCc4ccccc4C3)ccc21 | > 26 µM (inactive) |
| Cc1ccc(C(=O)C[n+]2cc(-c3ccccc3)n3c2CCCCC3)cc1 | > 26 µM (inactive) |
| O=C(/C(=C/c1ccc(Cl)cc1)c1nc2ccccc2[nH]1)c1ccccc1 | > 26 µM (inactive) |
| CCCCCCCCCCn1ccc(=N)cc1 | > 26 µM (inactive) |

| SMILES | AC50 |
| --- | --- |
| O=C(CNc1ccccc1)N/N=C/c1c(O)ccc2ccccc12 | > 26 µM (inactive) |
| Cc1cc(-c2ccccc2)cc(C)[n+]1Cc1ccccc1 | > 26 µM (inactive) |
| CN(C)S(=O)(=O)c1ccc(Nc2nc(C3CC3)nc3c2nnn3Cc2ccccc2Cl)cc1 | > 26 µM (inactive) |
| Cc1cc(C)n(CCC(=O)N/N=C/c2c(O)ccc3ccccc23)n1 | > 26 µM (inactive) |
| COc1ccc(-c2cn(-c3ccc(Cl)cc3)c3[n+]2CCCCC3)cc1 | > 26 µM (inactive) |
| CCn1c(=O)c(C(=O)Nc2ccccn2)c(O)c2ccccc21 | > 26 µM (inactive) |
| CN(CC1CCCO1)S(=O)(=O)c1ccc(C(=O)Nc2nc(-c3ccccn3)cs2)cc1 (stereo not given) | > 26 µM (inactive) |
| Cc1ccc2nc(-c3ccccn3)c(NC3CCCC3)n2c1 | > 12 µM (inactive) |
| CCc1ccc(Nc2n[n+](-c3ccccc3)c(-c3c(Cl)cccc3Cl)s2)cc1 | > 26 µM (inactive) |
| Cc1ccccc1/C=N/Nc1ccnc2cc(Cl)ccc12 | > 26 µM (inactive) |
| Cc1ccc(C)c(NC(=O)c2ccccc2NS(=O)(=O)c2cc([N+](=O)[O-])ccc2C)c1 | > 26 µM (inactive) |
| CCN(CC)CCOC(=O)c1ccc(N/C=C(/C#N)c2nc(-c3ccc4c(c3)OCO4)cs2)cc1 | > 26 µM (inactive) |
| COc1ccc(NS(=O)(=O)c2cccc(NC(=O)c3ccc(S(=O)(=O)N4CCCCCC4)cc3)c2)cc1 | > 26 µM (inactive) |
| c1ccc(CCNc2ncnc3ccccc23)cc1 | > 26 µM (inactive) |
| COc1ccc(S(=O)(=O)Nc2ccc(O)c3ccccc23)cc1 | > 26 µM (inactive) |
| CC[C@@H](C(=O)[C@@H](C)[C@@H](O)[C@H](C)CCc1ccc(C)c(O)c1C(=O)O)[C@H]1O[C@](CC)([C@H]2CC[C@](O)(CC)[C@H](C)O2)C[C@@H]1C | > 12 µM (inactive) |
| Cc1cccnc1CN1CCN(C(=O)c2cc(COc3ccc4ncccc4c3)on2)CC1 | > 26 µM (inactive) |
| Brc1ccc(N/N=C(/N=Nc2nn[nH]n2)c2ccccc2)cc1 | > 26 µM (inactive) |
| CC(=O)Cc1cc(O)c2ccccc2c1OC(=O)c1ccc(Br)cc1 | > 26 µM (inactive) |
| Cc1cccc(NC(=O)c2nc(S(=O)(=O)Cc3ccccc3)ncc2Cl)c1 | > 26 µM (inactive) |
| Cc1cc(C(C)(C)C)cc(C)c1C[n+]1ccc2ccccc2c1 | > 26 µM (inactive) |
| O=C(Nc1nc2c(F)cc(F)cc2s1)c1ccccn1 | > 26 µM (inactive) |
